These results are taken from article PMC12752606, “METTL10‐Mediated PIAS3 Methylation Links Purine Metabolism to Gastric Cancer Progression” (Advanced Science, 2025).

For the assay, the system named is MKN45 xenografts. Kind of assay: MKN45 subcutaneous xenograft model. The assay is classed as in vivo, BALB/c nude mice. The conditions noted are these: 20 or 40 mg/kg i.p. once daily for 2 weeks. On the procedure:
For the subcutaneous tumor model, 5 × 10⁶ MKN45 cells suspended in 100 µL of sterile PBS were injected subcutaneously into the flanks of BALB/c nude mice. When tumor volumes reached approximately 50 mm^3, mice were randomized into three groups (Vehicle control, LZQ‐02‐023‐01 at 20 mg/kg or 40 mg/kg, n = 10 per group). All treatments were administered via intraperitoneal injection once daily for 14 consecutive days. Tumor volumes were measured every 2 days using calipers and calculated using the formula: volume = [length × (width[2])]/2. Mice were sacrificed on day 24 for endpoint analyses. For genetically engineered mouse models (GEMMs), 25‐week‐old K19‐C2mE mice were randomized into Vehicle control (n = 8) and LZQ‐02‐023‐01 treatment (40 mg/kg, n = 8) groups. Both groups received daily intraperitoneal injections for 28 consecutive days. Similarly, 8‐week‐old Cldn18‐AT mice were induced with tamoxifen (100 mg/kg, T5648, Sigma) and, 2 weeks post‐induction, randomized into Vehicle (n = 6) and LZQ‐02‐023‐01 (40 mg/kg, n = 6) treatment groups. Treatments were administered daily via intraperitoneal injection for 28 days.
Paraffin sections were initially placed in an oven at 65 °C for 30 min to melt the paraffin. The slides were then immersed in two consecutive xylene baths for 10 min each to dewax the tissue, followed by hydration through a series of graded ethanol solutions. […]

For `Cc1ccc(Nc2ncc3c(n2)N(C)C(=O)N(c2cccc(N)c2)C3)cn1` [LZQ-02-023-01, Three‐(3‐aminophenyl)‐1‐methyl‐7‐((6‐methylpyridin‐3‐yl)amino)‐3,4‐dihydropyrimido [4,5‐d] pyrimidin‐2 (1H)‐one], the “Growth of xenografts derived from MKN45 cells” value was “significant reduction”; the “Ki-67 expression, PIAS3-K442 methylation and MITF in xenografts” value is “significantly decreased”.
